Reference: patent US20260327216A1, “SUBSTITUTED OXAZOLONE COMPOUND FOR DECREASING LEVELS OF IKZF I-4 PROTEINS” (BRISTOL-MYERS SQUIBB COMPANY, priority 2023, published 2026)

Columns and labels:
IKZF4 Eos = molecular target: T1, IKZF4 Eos (Homo sapiens, UniProt Q96SW2+Q9H2S9); test: Human Regulatory T Cell Reprogramming Assay, IKZF4; assay type: cell-based; settings: 12-13 days; for Dmax: Regulatory T cell, human, read-out: IKZF4 Eos max % deg. observed; for Dmax / IKZF4 Eos max % deg. observed: human CD4+CD127lowCD25+ Treg cells, stimulated, 100% = complete degradation
T1 construct: endogenous in cells; host or cells: FACS-sorted human CD4+CD127lowCD25+ Treg cells from healthy leukopaks
T1 sequence (Q9H2S9 whole entry): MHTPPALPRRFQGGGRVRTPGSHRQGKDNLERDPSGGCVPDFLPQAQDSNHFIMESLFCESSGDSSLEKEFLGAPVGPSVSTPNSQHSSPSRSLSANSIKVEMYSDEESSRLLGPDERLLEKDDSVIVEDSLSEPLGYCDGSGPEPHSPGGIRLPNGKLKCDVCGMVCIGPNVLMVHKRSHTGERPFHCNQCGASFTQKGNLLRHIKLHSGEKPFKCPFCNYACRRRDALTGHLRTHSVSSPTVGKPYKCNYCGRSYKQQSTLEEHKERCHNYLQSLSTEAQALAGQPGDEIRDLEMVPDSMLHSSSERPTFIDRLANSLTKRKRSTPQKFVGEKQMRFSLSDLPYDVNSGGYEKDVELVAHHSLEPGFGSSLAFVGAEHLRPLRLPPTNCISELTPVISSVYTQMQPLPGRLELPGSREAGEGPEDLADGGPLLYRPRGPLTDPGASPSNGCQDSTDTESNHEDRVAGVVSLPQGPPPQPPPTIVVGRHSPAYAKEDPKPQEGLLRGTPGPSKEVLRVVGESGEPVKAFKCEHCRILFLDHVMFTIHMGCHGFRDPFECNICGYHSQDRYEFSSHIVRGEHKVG
T1 sequence (Q96SW2 whole entry): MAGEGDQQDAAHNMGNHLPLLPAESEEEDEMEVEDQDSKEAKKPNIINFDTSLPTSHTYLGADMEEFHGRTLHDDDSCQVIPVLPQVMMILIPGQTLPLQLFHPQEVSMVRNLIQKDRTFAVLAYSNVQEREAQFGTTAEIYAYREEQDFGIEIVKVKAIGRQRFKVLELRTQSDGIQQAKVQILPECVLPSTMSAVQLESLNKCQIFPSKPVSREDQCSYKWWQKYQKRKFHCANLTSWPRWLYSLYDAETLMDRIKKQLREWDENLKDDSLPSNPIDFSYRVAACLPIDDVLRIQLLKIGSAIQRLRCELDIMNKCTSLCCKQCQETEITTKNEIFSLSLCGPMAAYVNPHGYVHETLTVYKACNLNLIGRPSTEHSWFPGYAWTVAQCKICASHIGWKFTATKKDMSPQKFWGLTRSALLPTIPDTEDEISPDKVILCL
T1 sequence (Q16531 whole entry partner): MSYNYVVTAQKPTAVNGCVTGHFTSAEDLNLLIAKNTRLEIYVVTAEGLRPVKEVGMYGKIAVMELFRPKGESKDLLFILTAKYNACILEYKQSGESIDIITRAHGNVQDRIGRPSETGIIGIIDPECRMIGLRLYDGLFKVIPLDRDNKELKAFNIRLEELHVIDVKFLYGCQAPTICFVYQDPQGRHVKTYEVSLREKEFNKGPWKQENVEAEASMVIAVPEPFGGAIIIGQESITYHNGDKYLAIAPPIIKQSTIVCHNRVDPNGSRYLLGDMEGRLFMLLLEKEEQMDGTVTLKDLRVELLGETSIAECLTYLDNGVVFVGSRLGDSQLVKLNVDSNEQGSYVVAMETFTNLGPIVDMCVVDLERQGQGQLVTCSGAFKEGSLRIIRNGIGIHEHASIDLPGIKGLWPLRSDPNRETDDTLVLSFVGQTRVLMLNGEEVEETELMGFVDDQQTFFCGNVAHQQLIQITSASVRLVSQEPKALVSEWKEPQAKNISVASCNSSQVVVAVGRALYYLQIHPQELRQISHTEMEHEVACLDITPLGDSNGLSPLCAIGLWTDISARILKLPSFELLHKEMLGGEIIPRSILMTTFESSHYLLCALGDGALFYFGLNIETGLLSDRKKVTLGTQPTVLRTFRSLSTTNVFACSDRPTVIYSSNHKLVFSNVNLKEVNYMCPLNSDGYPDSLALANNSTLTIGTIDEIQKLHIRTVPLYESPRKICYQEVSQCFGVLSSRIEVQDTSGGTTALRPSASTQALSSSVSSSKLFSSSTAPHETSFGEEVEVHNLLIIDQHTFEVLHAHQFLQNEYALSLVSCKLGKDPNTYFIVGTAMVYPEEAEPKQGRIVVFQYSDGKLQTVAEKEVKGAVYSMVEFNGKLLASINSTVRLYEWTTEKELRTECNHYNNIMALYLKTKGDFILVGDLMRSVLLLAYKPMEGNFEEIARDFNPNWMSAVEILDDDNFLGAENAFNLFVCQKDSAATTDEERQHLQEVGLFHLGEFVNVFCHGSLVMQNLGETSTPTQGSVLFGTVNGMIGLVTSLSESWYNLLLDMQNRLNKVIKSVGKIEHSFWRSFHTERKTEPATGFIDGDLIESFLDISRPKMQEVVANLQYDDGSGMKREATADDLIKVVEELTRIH
Method: Human CD4^+ T cells were isolated from fresh healthy leukopaks (Stemcell Technologies) using the RosetteSep Human CD4^+ T cell enrichment cocktail (Stemcell Technologies) and Ficoll density gradient centrifugation. Leukopaks were diluted with an equal volume of phosphate-buffered saline (PBS [Gibco]) supplemented with 2% fetal bovine serum (FBS, VWR Lifescience) and incubated with RosetteSep Human CD4^+ T cell enrichment cocktail for 20 minutes before layering on Ficoll-Paque Plus solution (GE Health Care). The cell-rich interface layer was harvested and washed twice with PBS supplemented with 2% FBS. Regulatory T cells were then isolated manually using the EasySep Human CD4^+CD127^lowCD25^+ Regulatory T cell isolation kit (Stemcell Technologies) according to the manufacturer's instructions. Cells were rested overnight in Roswell Park Memorial Institute (RPMI) 1640 media (Gibco) supplemented with 10% FBS, Pen/Strep (Gibco), MEM-NEAA (Gibco), and sodium pyruvate (Gibco) in a humidified incubator (37° C., 5% CO2). Cells were then stained for CD4 (clone: RPA-T4, Biolegend), CD25 (clone: 2A3, BD Biosciences), and CD127 (clone: hIL-7R-M21, BD Biosciences). CD4^+CD127^lowCD25^+ cells were sorted on a BD FACS Aria Fusion sorter to a purity of 95% or greater. Sorted cells were immediately used or cryopreserved for downstream assays.
Fresh or cryopreserved FACS-sorted CD4^+CD127^lowCD25^+ Treg cells were cultured at 25,000-50,000 cells/well of 96-well round bottom plates in RPMI 1640 media (Gibco) supplemented with 10% FBS, Pen/Strep (Gibco), MEM-NEAA (Gibco), and sodium pyruvate (Gibco). Cells were stimulated with Treg Xpander beads (Thermo Fisher) at cells-to-beads ratio of 1:4 in the presence of 500 U/mL recombinant human IL-2 (Proleukin). Compounds were added at titrated doses and cells were incubated at 37°C., 5% CO2 for 12-13 days. Recombinant human IL-2 and compound were replenished every 2-3 days during the entire culture duration. On day 12 or 13, cells were restimulated with phorbol 12-myristate 13-acetate (PMA) and ionomycin in the presence of the protein transport inhibitors brefeldin A and monensin (eBioscience Cell Stimulation Cocktail plus protein transport inhibitors, 500×, Catalog number 00-4975-93) before proceeding with flow cytometry staining and analysis.
For flow cytometry staining, cells were washed twice with flow cytometry staining buffer (Thermo Fisher) and incubated in Human Tru-stain Fc block (Biolegend) for 10 minutes before adding eFluor780 viability dye (Thermo Fisher) and surface marker antibody cocktail for 30 minutes at 4° C. Cells were then fixed and permeabilized by incubation with FoxP3 transcription factor staining buffer (Thermo Fisher) for 30 minutes at 4° C. as per the kit manufacturer's instructions. Cells were washed twice with the Perm/Wash buffer supplied in the kit as per the manufacturer's instructions and incubated overnight at 4° C. with an intracellular antibody cocktail comprised of antibodies specific for the transcription factors shown in Table C. Cells were washed twice with Perm/Wash buffer and resuspended in flow cytometry staining buffer (Thermo Fisher) prior to acquisition. Sample acquisition and analysis was performed using a BD LSRFortessa (BD Biosciences) flow cytometer. Single stain controls for each fluorochrome were prepared using UltraComp eBead Compensation Beads (Thermo Fisher). Data were analyzed using FlowJo version 10 and GraphPad Prism Software.
(§1) Table C-1 lists the maximum observed degradation of the IKZF2 protein and IKZF4 protein as measured in the Human Regulatory T Cell Reprogramming assay. The results in Table C-1 were rounded to two digits. In the Human Regulatory T Cell Reprogramming assay, a value of 100% indicated no detectable protein remaining or complete degradation of the protein; and a value of 0% indicated no detectable degradation of the protein by the test compound.

IKZF1 Ikaros = IKZF1 Ikaros (Homo sapiens, UniProt Q13422+Q96SW2); test: Human Regulatory T Cell Degradation Assay, IKZF1; assay type: cell-based; design: Cryopreserved healthy donor human peripheral blood mononuclear cells (PBMC); endogenous in cells; host or cells: human PBMC from healthy donors (CD8+ T cells by flow cytometry); settings: human regulatory T cells, 20 hours; for Dmax: Regulatory T cell, 100% = complete degradation, read-out: IKZF1 Ikaros max % deg. observed; for DC50: concentration reducing protein level by 50% vs DMSO
Sequence of IKZF1 Ikaros (Q13422 whole entry): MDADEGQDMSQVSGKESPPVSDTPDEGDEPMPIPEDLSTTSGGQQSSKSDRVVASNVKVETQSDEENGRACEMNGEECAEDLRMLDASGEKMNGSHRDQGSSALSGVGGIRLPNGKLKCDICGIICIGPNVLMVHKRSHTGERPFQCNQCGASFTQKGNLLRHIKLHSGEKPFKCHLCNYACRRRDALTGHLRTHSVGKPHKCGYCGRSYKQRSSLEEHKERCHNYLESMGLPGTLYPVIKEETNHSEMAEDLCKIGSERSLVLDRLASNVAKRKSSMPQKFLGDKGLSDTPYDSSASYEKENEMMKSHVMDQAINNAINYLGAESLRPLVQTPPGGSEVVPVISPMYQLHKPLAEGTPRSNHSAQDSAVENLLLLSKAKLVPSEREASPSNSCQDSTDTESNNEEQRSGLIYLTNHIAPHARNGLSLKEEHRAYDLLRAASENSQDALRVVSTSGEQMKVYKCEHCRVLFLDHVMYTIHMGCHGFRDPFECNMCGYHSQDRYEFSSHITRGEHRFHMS
Sequence of IKZF1 Ikaros (Q96SW2 whole entry): as the sequence (Q96SW2 whole entry) above
Sequence of IKZF1 Ikaros (Q16531 whole entry partner): as the sequence (Q16531 whole entry partner) above
Method: Cryopreserved human regulatory T cells were thawed in RPMI+10% FBS+20 ng/mL IL-2. After being spun at 1200 rpm for 5 mins, the cells were resuspended in RPMI+10% FBS+20 ng/mL and rested at 37° C. with 5% CO2 for 3 hours. The cells were then plated at 40,000 cells/well in 40 μL RPMI+10% FBS+20 ng/ml human IL-2 in a 384 well cell culture plate prior to using acoustic dispensing technology (ECHO 555) for adding compounds of interest. Cell cultures were incubated for 20 hours at 37° C. and 5% CO2. In order to facilitate analysis, cell cultures were spun down at 1200 rpm for 5 minutes and the supernatant was discarded using an EL406 plate washer. After washing three times with 70 μL PBS, cell pellets were resuspended in 50 μL of near IR viability staining solution (Life Technologies, Cat #L34975) and incubated for 30 minutes on ice protected from light. Cells were washed three times with 70 μL PBS+0.5% BSA using an EL406 plate washer. After shaking the plate to dislodge the cell pellet, cells were resuspended in 50 μL of Fixation Buffer (eBioScience FoxP3 buffer set 00-5523-00) for 60 minutes at room temperature. After centrifuging and discarding the supernatant, cells were permeabilized with 50 μL of permeabilization buffer (eBioScience FoxP3 buffer set 00-5523-00) for 10 minutes at room temperature. Following permeabilization, cells were spun down and the supernatant was replaced with 30 μL fluorescently labelled antibodies against the intracellular targets Helios (Helios-APC [BioLegend, Cat #137222, 1:50])]), Aiolos, and Ikaros 1× Permeabilization buffer and staining reactions were incubated for 1 bour at room temperature; protected from light. Subsequently, 30 μL of 1× Permeabilization buffer was added prior to centrifuging the cells and discarding the supernatant. Stained cells were resuspended in 30 μL of flow cytometry staining buffer (PBS+0.5% BSA) and analyzed using an Intellicyt Ique Plus flow cytometer.
as §1, with “B-1” for “C-1”, “IKZF1” for “IKZF2”, “IKZF2” for “IKZF4”, “Degradation” for “Reprogramming”

| Dmax (IKZF4 Eos) | IKZF4 Eos max % deg. observed (IKZF4 Eos) | Dmax (IKZF1 Ikaros) | DC50 (IKZF4 Eos; human Treg cells, concentration reducing protein level by 50% vs DMSO) | DC50 (IKZF1 Ikaros) | Compound |
| --- | --- | --- | --- | --- | --- |
| ≤ 11% | 11% | 47% | – | – | O=C1CCC(n2cc(-c3ccc(Br)cc3F)oc2=O)C(=O)N1 (centres unmarked) [Comparative Compound B, 3-(5-(4-bromo-2-fluorophenyl)-2-oxooxazol-3(2H)-yl)piperidine-2,6-dione] |
| 68 to 71% | 68-71% | 46% | 0.00045 µM | > 10 µM | Cc1cc(-c2ccc(-c3cn(C4CCC(=O)NC4=O)c(=O)o3)c(F)c2)nc(N)c1OC(F)F (centres unmarked) [Example 1, 3-(5-(4-(6-Amino-5-(difluoromethoxy)-4-methylpyridin-2-yl)-2-fluorophenyl)-2-oxooxazol-3(2H)-yl)piperidine-2,6-dione] |
| – | 0% | 24% | – | > 10 µM | O=C1CCC(n2cc(-c3ccccc3)oc2=O)C(=O)N1 (centres unmarked) [Comparative Compound A, 3-(2-oxo-5-phenyloxazol-3(2H)-yl)piperidine-2,6-dione] |
